Series [1] concerns MV4;11 cells (FLT3-ITD homozygous). Put plainly: Cell proliferation/viability assay, MV4;11. The conditions noted are these: Homo sapiens, 48 hr, ± SEM. It is filed as cell-based. The procedure:
(§1) Exponentially growing cells (5 × 10^3 cells per well) were plated in each well of a 96-well plate with 0.1 ml of RPMI 1640 + 10% (vol/vol) FCS containing the appropriate concentration of drug in triplicate, and cell viability was assessed after 48 hr as previously described ([Smith et al., 2012]). […] Log10-scale transformation of ratios, followed by conditional formatting using xcel spreadsheet software yielded the colored diagrams shown.

In another series the test system is HMC1.1 cells (KIT V560G). Put plainly: Cell proliferation/viability assay, HMC1.1. In kind it is cell-based, human. The procedure:
as §1

In the next series the test system is HMC1.1 cells. Nature of the series: Caspase-3 activation (apoptosis), HMC1.1. In kind it is cell-based, human. The conditions noted are these: 48 hr, up to 2,500 nM. As for the experimental part:
Cells were fixed with 4% (vol/vol) paraformaldehyde (Electron Microscopy Sciences) and permeabilized with 100% (vol/vol) methanol (Electron Microscopy Sciences, Hatfield, PA) followed by staining with a FITC-conjugated antiactive caspase-3 antibody (BD Pharmingen, San Jose, CA). Cells were run on a BD LSRFortessa cell analyzer, and data were analyzed using FlowJo (Tree Star Inc., Ashland, OR). Percentage of live cells was determined by negative staining for activated caspase-3 (see Figure 2B,C).

The subject of a further series is zebrafish embryos. Put plainly: Zebrafish embryonic development / WT morphology. The conditions noted are these: 3 dpf, drug from 6 hpf. In kind it is in vivo, Danio rerio (zebrafish). The procedure: Figure 4. […] (N–P) Three categories of mpo transcription (N, normal; O, intermediate; P, severe) were defined based on the WISH results (three experiments). […] Scale bar equals 500 μm. Blue arrows indicate the pericardial edema, green arrows indicate tail shortening and curving, and red arrows indicate the FLT3-ITD AML mpo+ myeloid cells expansion. […] For all experiments: Zebrafish embryos were collected and kept in standard E3 medium at 28°C. Different concentrations of either drug were added to the E3 medium from 6 hr post fertilization (hpf) to 3 days post fertilization (dpf). Embryos treated with DMSO or 10 μM drug from 6 to 30 hpf were collected for mpo whole mount in situ hybridization (WISH) analysis. […] plasmid DNA containing FLT3/ITD sequence was microinjected into one-cell stage embryos, and the uninjected embryos were used as control. FLT3/ITD-injected embryos were treated with DMSO or 10 μM drug from 6 to 30 hpf.
Wild-type (WT) zebrafish were maintained under standard conditions, and embryos were staged as described ([He et al., 2014]). The study was approved by the Committee of the Use of Live Animals for Teaching and Research in The University of Hong Kong.

The next series has as its system Ba/F3 FLT3 ITD. Put plainly: Ba/F3 cell viability, FLT3 ITD. In kind it is cell-based. The conditions noted are these: Mus musculus, Ba/F3, 48 hr, ± SEM. As for the experimental part: (§2) Stable Ba/F3 lines were generated by retroviral spinfection with the appropriate mutated plasmid as previously described ([Smith et al., 2012]).
as §1
(§3) Mutations isolated in the screen were engineered into pMSCVpuroFLT3–ITD by QuikChange mutagenesis (Stratagene, La Jolla, CA) as previously described ([Smith et al., 2012]).

A further series relates to Ba/F3 FLT3 ITD + D835Y. Nature of the series: Ba/F3 cell viability, FLT3 ITD + D835Y. It is filed as cell-based. The conditions noted are these: Mus musculus, Ba/F3, 48 hr, ± SEM. As for the experimental part: as §2, §1, §3
Another series relates to Ba/F3 FLT3 ITD + D835H. Nature of the series: Ba/F3 cell viability, FLT3 ITD + D835H. It is filed as cell-based. The conditions noted are these: Mus musculus, Ba/F3, 48 hr, ± SEM. As for the experimental part:
as §2, §1, §3

For a further series, the system named is Ba/F3 FLT3 ITD + Y842H. Nature of the series: Ba/F3 cell viability, FLT3 ITD + Y842H. It is filed as cell-based. The conditions noted are these: Mus musculus, Ba/F3, 48 hr, ± SEM. As for the experimental part: as §2, §1, §3
In the next series the test system is Ba/F3 FLT3 ITD + Y842C. Nature of the series: Ba/F3 cell viability, FLT3 ITD + Y842C. It is filed as cell-based. The conditions noted are these: Mus musculus, Ba/F3, 48 hr, ± SEM. The procedure:
as §2, §1, §3

Another series relates to Ba/F3 FLT3 ITD + D839G. Put plainly: Ba/F3 cell viability, FLT3 ITD + D839G. In kind it is cell-based. The conditions noted are these: Mus musculus, Ba/F3, 48 hr, ± SEM. As for the experimental part: as §2, §1, §3
The next series concerns Ba/F3 FLT3 ITD + D698N. Nature of the series: Ba/F3 cell viability, FLT3 ITD + D698N. The conditions noted are these: Mus musculus, Ba/F3, 48 hr, ± SEM. It is filed as cell-based. As for the experimental part:
as §2, §1, §3

The subject of the next series is Ba/F3 FLT3 ITD + A848P. Nature of the series: Ba/F3 cell viability, FLT3 ITD + A848P. In kind it is cell-based. The conditions noted are these: Mus musculus, Ba/F3, 48 hr, ± SEM. The procedure:
as §2, §1, §3

In the next series the target is T1, FLT3 (Homo sapiens, UniProt P36888).
T1 sequence (P36888 27-993): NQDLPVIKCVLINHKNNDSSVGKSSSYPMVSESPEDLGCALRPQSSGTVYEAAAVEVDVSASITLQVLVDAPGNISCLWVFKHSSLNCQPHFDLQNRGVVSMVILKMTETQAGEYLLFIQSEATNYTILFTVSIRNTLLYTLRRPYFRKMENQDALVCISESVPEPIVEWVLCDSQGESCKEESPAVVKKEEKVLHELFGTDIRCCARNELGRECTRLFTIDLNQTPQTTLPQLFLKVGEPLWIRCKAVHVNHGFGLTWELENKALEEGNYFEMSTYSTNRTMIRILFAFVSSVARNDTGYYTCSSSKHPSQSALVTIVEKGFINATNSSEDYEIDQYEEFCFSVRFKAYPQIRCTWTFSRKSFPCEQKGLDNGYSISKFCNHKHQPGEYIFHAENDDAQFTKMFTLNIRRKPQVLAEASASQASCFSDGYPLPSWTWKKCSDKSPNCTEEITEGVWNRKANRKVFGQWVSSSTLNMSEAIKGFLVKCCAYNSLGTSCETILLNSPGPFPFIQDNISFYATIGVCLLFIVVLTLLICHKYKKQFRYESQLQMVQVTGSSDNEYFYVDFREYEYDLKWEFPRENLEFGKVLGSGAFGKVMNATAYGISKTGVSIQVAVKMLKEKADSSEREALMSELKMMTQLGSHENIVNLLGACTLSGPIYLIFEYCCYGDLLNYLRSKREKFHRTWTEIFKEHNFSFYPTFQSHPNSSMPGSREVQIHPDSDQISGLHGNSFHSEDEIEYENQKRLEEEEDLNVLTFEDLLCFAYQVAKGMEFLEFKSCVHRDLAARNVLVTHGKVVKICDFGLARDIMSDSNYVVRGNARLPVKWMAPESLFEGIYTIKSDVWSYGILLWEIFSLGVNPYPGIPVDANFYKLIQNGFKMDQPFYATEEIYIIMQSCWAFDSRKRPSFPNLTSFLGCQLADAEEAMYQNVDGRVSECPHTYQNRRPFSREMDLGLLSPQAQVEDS
Nature of the series: Reaction Biology Corp kinase assay at Km-ATP (Figure 1C), FLT3.

For a further series, the target named is CSF1R (Homo sapiens, UniProt P07333). Put plainly: Reaction Biology Corp kinase assay at Km-ATP (Figure 1C), CSF1R.
Sequence of CSF1R (P07333 20-972): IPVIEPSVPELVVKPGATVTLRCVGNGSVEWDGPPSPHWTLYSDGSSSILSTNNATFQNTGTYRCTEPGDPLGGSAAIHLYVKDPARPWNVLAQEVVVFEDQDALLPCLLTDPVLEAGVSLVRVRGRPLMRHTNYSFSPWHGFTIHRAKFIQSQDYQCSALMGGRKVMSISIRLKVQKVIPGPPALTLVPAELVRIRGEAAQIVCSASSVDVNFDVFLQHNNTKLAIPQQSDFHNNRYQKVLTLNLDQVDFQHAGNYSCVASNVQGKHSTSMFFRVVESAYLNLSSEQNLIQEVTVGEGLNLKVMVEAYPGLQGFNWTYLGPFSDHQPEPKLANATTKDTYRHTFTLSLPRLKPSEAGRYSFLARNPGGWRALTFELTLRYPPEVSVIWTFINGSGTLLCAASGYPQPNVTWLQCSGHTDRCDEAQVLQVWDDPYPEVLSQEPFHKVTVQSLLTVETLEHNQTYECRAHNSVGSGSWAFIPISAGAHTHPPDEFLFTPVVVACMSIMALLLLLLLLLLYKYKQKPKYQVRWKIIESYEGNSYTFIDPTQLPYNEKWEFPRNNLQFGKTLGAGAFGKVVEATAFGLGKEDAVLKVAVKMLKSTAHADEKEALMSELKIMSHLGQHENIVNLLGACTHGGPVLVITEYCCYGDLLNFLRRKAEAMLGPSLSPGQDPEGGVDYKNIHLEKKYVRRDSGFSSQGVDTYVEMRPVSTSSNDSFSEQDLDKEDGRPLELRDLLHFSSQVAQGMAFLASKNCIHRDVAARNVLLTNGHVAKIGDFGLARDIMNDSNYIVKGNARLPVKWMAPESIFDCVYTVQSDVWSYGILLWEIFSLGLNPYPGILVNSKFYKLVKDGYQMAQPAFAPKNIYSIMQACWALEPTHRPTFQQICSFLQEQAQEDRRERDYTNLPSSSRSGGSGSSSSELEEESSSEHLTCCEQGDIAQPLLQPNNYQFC
The target in a further series is PDGFRβ (Homo sapiens, UniProt P09619). Nature of the series: Reaction Biology Corp kinase assay at Km-ATP (Figure 1C), PDGFRβ.
Sequence of PDGFRβ (P09619 33-1106): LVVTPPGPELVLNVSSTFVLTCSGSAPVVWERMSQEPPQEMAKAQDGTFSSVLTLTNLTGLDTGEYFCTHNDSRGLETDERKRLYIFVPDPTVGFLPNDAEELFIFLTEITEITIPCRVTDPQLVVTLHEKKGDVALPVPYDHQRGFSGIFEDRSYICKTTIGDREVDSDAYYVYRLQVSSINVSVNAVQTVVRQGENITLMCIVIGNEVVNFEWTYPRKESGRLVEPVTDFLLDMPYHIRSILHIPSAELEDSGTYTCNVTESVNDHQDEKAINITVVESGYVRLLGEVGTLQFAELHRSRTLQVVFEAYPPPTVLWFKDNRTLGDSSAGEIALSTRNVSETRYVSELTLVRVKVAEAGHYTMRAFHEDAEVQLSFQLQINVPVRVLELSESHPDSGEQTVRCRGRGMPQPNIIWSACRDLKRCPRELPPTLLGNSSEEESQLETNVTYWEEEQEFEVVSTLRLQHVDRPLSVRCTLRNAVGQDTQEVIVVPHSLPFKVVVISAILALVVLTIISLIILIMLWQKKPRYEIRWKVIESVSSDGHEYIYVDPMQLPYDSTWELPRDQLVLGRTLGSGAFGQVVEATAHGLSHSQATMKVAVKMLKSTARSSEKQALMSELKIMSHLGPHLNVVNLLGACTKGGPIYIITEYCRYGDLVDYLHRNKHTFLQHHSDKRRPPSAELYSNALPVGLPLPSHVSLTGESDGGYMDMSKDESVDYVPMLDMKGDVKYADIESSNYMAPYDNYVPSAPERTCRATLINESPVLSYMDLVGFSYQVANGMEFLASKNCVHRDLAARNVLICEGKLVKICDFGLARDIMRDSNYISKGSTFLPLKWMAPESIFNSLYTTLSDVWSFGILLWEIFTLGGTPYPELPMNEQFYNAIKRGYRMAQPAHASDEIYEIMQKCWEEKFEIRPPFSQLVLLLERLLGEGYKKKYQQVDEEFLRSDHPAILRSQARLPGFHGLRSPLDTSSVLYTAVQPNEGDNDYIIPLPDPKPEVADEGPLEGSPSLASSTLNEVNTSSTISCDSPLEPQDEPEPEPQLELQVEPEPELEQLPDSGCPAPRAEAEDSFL

Entries after “also recorded” stand apart in the source; their conditions may differ. Some results are limits rather than exact numbers.

Turning to `CC1NC(=O)c2c1c1c3ccccc3n(CCCN)c1c1[nH]c3ccccc3c21` (centres unmarked) [Star 27], the IC50 was 41 ± 6 nM in [1]; greater than 5000 nM in the series with HMC1.1 cells (KIT V560G) (Homo sapiens, Kit V560 G, 48 hr, ± SEM); 57 ± 45 nM in the series with Ba/F3 FLT3 ITD; 39 ± 24 nM in the series with Ba/F3 FLT3 ITD + D835Y; 48 ± 29 nM with Ba/F3 FLT3 ITD + D835H; 38 ± 24 nM in the series with Ba/F3 FLT3 ITD + Y842H. Further, the IC50 in the series with Ba/F3 FLT3 ITD + Y842C was 48 ± 29 nM; in the series with Ba/F3 FLT3 ITD + D839G it was 80 ± 41 nM; in the series with Ba/F3 FLT3 ITD + D698N it was 174 ± 44 nM; in the series with Ba/F3 FLT3 ITD + A848P, 53 ± 31 nM; on FLT3, less than 0.6 nM; against CSF1R, greater than 9880 nM. Half-maximal inhibition against PDGFRβ (IC50) required 80 ± 11 nM. In the series with HMC1.1 cells (KIT V560G) (ratio of proliferation IC50s), the “selectivity window HMC1.1/MV4;11” value is reported as greater than 122 fold. In the series on HMC1.1 cells, the “apoptosis/toxicity (caspase-3) in KIT-addicted HMC1.1 cells” value is listed as “very little up to 2,500 nM; also recorded: minimal apoptosis”. Further, in the series with zebrafish embryos, the “effect on zebrafish embryonic development / morphology” value was “no change in heart and tail morphology; also recorded: no noticeable morphological defects up to 10 μM”. Besides, the “CSF1R/FLT3 IC50 ratio” value on CSF1R (ratio of Figure 1C IC50s) is given as > 16,500.

The IC50 is the concentration that gives 50% inhibition.

(Values after article PMC4307180, “Overcoming myelosuppression due to synthetic lethal toxicity for FLT3-targeted acute myeloid leukemia therapy” (eLife, 2014).)
